Data on six molecules can be found in ChEMBL document CHEMBL1154779, “Synthesis and adrenolytic activity of 1-(1H-indol-4-yloxy)-3-(2-(2-methoxy phenoxy)ethylamino)propan-2-ol analogs and its enantiomers. Part 2” (Eur J Med Chem, 2009).

Experiment [1] has as its target T1, Adrenergic receptor alpha-1 (Rattus norvegicus, UniProt P15823+P23944+P43140).
T1 sequence (P15823 whole entry): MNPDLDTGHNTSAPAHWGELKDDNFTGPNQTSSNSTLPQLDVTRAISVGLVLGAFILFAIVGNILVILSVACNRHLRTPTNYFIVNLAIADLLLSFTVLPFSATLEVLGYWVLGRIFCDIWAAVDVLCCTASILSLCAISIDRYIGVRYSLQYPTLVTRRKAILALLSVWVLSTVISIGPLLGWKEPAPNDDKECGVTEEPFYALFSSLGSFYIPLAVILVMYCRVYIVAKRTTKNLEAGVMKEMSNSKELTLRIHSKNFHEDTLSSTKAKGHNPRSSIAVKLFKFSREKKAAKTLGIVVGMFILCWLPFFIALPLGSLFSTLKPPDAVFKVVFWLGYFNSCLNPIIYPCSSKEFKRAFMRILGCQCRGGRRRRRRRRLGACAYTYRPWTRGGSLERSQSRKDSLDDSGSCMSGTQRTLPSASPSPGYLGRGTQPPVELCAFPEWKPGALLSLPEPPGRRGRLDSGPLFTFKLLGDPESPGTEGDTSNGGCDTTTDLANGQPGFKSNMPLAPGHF
T1 sequence (P23944 whole entry): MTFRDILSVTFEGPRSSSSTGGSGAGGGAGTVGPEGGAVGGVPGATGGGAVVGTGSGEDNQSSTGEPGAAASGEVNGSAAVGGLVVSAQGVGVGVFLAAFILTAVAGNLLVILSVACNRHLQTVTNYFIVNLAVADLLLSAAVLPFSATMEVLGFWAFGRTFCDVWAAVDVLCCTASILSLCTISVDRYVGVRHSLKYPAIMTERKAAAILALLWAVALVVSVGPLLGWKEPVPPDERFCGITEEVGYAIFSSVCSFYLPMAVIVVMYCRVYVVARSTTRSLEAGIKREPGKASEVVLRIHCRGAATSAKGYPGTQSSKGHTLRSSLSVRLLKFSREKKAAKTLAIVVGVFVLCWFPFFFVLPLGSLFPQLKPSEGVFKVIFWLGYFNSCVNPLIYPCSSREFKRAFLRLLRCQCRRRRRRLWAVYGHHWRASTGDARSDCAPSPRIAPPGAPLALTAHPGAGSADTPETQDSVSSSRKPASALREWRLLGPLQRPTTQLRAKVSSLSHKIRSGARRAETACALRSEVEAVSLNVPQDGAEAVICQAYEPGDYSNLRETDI
T1 sequence (P43140 whole entry): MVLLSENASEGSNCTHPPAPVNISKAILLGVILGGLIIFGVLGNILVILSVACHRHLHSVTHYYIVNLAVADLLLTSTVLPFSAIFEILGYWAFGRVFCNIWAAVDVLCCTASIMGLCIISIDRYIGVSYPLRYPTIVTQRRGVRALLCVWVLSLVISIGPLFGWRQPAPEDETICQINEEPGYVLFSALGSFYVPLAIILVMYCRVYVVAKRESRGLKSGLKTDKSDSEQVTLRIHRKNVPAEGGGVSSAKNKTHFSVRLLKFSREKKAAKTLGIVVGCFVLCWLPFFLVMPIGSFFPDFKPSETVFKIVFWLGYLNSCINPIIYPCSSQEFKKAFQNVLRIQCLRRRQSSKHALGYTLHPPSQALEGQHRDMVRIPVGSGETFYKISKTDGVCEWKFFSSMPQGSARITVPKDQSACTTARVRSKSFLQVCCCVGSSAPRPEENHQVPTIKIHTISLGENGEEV
Briefly: Displacement of [3H]Prazosin from alpha1 adrenergic receptor in Wistar rat cerebral cortex membrane by liquid scintillation counting. Format: tissue-based.

Experiment [2] concerns Rattus norvegicus. Briefly: Effect on heart rate in anesthetized Wistar rat assessed as Q-T intervals time at 1 mg/kg, iv after 1 min by electrocardiography. Format: functional.
The test system of experiment [3] is Rattus norvegicus. Briefly: Effect on heart rate in anesthetized Wistar rat assessed as QRS complex time at 1 mg/kg, iv after 15 mins by electrocardiography. It is filed as functional.
Experiment [4] relates to Rattus norvegicus. As to the kind of experiment: Effect on heart rate in anesthetized Wistar rat assessed as heart beats per min at 1 mg/kg, iv after 15 mins by electrocardiography. Format: functional.
Experiment [5] is described as follows: Displacement of [3H]CGP12177 from beta-1 adrenergic receptor in Wistar rat cerebral cortex membrane by liquid scintillation counting. It is filed as tissue-based.
The test system of experiment [6] is Rattus norvegicus. Briefly: Effect on heart rate in anesthetized Wistar rat assessed as QRS complex time at 1 mg/kg, iv after 1 min by electrocardiography. Format: functional.
For experiment [7], the system named is Rattus norvegicus. As to the kind of experiment: Effect on heart rate in anesthetized Wistar rat assessed as P-Q intervals time at 1 mg/kg, iv after 1 min by electrocardiography. It is filed as functional.
Experiment [8] concerns Rattus norvegicus. Briefly: Effect on heart rate in anesthetized Wistar rat assessed as Q-T intervals time at 1 mg/kg, iv after 15 mins by electrocardiography. Format: functional.
The test system of experiment [9] is Rattus norvegicus. As to the kind of experiment: Effect on heart rate in anesthetized Wistar rat assessed as P-Q intervals time at 1 mg/kg, iv after 5 mins by electrocardiography. It is filed as functional.
In experiment [10] the test system is Rattus norvegicus. As to the kind of experiment: Effect on heart rate in anesthetized Wistar rat assessed as P-Q intervals time at 1 mg/kg, iv after 15 mins by electrocardiography. It is filed as functional.
The test system of experiment [11] is Rattus norvegicus. As to the kind of experiment: Antiarrhythmic activity in Wistar rat assessed as inhibition of adrenaline-induced premature ventricular beats at 1 mg/kg, iv administered 15 mins before adrenaline challenge measured after 15 mins by electrocardiography. Format: functional. The conditions noted are these: Heart.
Experiment [12] relates to Rattus norvegicus. As to the kind of experiment: Effect on heart rate in anesthetized Wistar rat assessed as heart beats per min at 1 mg/kg, iv after 1 min by electrocardiography. It is filed as functional.
Experiment [13] concerns Rattus norvegicus. As to the kind of experiment: Effect on heart rate in anesthetized Wistar rat assessed as Q-T intervals time at 1 mg/kg, iv after 5 mins by electrocardiography. It is filed as functional.
Experiment [14] has as its system Rattus norvegicus. Briefly: Effect on heart rate in anesthetized Wistar rat assessed as QRS complex time at 1 mg/kg, iv after 5 mins by electrocardiography. Format: functional.

Each structure is given as a SMILES string.

The Ki is the dissociation constant of the complex between target and ligand, obtained from inhibition or displacement. Low values mean tighter binding, high ones weaker binding. What is called ED50 is the dose that gives a 50% effect, or the effect in half of the subjects. Consider `COc1ccccc1OCCNCC(O)COc1ccc(OC)c2[nH]ccc12` (racemic), for which the figures for the Ki in experiment [1] and in [5] were 75.8 nM and 125 nM, respectively. For the same molecule, the Activity with Rattus norvegicus [2] amounted to 87.1 ms; with Rattus norvegicus [3], 22.7 ms; in the experiment on Rattus norvegicus [4], 300 bpm; with Rattus norvegicus [6] it was 24.2 ms; with Rattus norvegicus [7], 58.8 ms; with Rattus norvegicus [8] it was 79.2 ms. Further, the Activity in the experiment with Rattus norvegicus [9] came out at 59.4 ms; in the experiment with Rattus norvegicus [10], 57.3 ms; with Rattus norvegicus [12], 297.3 bpm; in the experiment on Rattus norvegicus [13], 79.2 ms; in the experiment on Rattus norvegicus [14], 23 ms. Besides, the ED50 in the experiment on Rattus norvegicus [11] turned out to be 0.45 mg/kg.
On to `COc1ccccc1OCCNC[C@H](O)COc1c(OC)ccc2[nH]ccc12`, for which the Ki in [1] came to 11.3 nM; in experiment [5], 887 nM. The Activity is reported as 107.3 ms in the experiment on Rattus norvegicus [2]; 28 ms with Rattus norvegicus [3]; 367.6 bpm in the experiment with Rattus norvegicus [4]; 26 ms in the experiment on Rattus norvegicus [6]; 48.7 ms in the experiment on Rattus norvegicus [7]; 118 ms with Rattus norvegicus [8]. Also, the Activity in the experiment on Rattus norvegicus [9] came out at 46 ms; in the experiment with Rattus norvegicus [10], 46 ms; with Rattus norvegicus [12], 388.1 bpm; in the experiment with Rattus norvegicus [13], 111.3 ms; in the experiment on Rattus norvegicus [14] it was 28.7 ms. Further, the ED50 with Rattus norvegicus [11] worked out at 0.3 mg/kg.
As to `COc1ccccc1OCCNC[C@@H](O)COc1ccc(OC)c2[nH]ccc12`, the results for the Ki in [1] and in experiment [5] were 60.9 nM and 531 nM, respectively. The Activity with Rattus norvegicus [2] amounted to 89.2 ms; in the experiment on Rattus norvegicus [3], 24.5 ms; in the experiment with Rattus norvegicus [4], 255.2 bpm; in the experiment on Rattus norvegicus [6], 22.7 ms; in the experiment with Rattus norvegicus [7], 58.5 ms; with Rattus norvegicus [8], 81.7 ms. The Activity amounted to 59.7 ms with Rattus norvegicus [9]; 58 ms with Rattus norvegicus [10]; 267.4 bpm in the experiment with Rattus norvegicus [12]; 88 ms in the experiment with Rattus norvegicus [13]; 23.3 ms with Rattus norvegicus [14]. For the same molecule, the ED50 with Rattus norvegicus [11] was found to be 0.38 mg/kg.
`COc1ccccc1OCCNC[C@H](O)COc1ccc(OC)c2[nH]ccc12`: the Ki in experiment [1] was found to be 168.8 nM; in experiment [5], 59.3 nM. The Activity came out at 78.8 ms in the experiment on Rattus norvegicus [2]; 22.5 ms in the experiment on Rattus norvegicus [3]; 275.9 bpm in the experiment on Rattus norvegicus [4]; 25 ms in the experiment with Rattus norvegicus [6]; 58.5 ms in the experiment on Rattus norvegicus [7]; 83 ms in the experiment with Rattus norvegicus [8]. In addition, the Activity in the experiment on Rattus norvegicus [9] was 56.7 ms; with Rattus norvegicus [10], 53.3 ms; in the experiment with Rattus norvegicus [12], 292 bpm; in the experiment with Rattus norvegicus [13], 94.8 ms; in the experiment with Rattus norvegicus [14], 24.5 ms. In addition, in the experiment on Rattus norvegicus [11], the ED50 was determined as 0.53 mg/kg.
On to `COc1ccccc1OCCNCC(O)COc1c(OC)ccc2[nH]ccc12` (racemic), for which the Ki in experiment [1] is 21.1 nM; in [5], 1600 nM. Further, the Activity with Rattus norvegicus [2] stood at 111.4 ms; in the experiment with Rattus norvegicus [3] it was 26 ms; in the experiment with Rattus norvegicus [4], 364.7 bpm; with Rattus norvegicus [6] it was 31.3 ms; in the experiment with Rattus norvegicus [7], 48.7 ms; in the experiment on Rattus norvegicus [8], 118 ms. Moreover, the Activity is 51.3 ms in the experiment with Rattus norvegicus [9]; 48 ms with Rattus norvegicus [10]; 376.3 bpm in the experiment on Rattus norvegicus [12]; 107.3 ms in the experiment on Rattus norvegicus [13]; 27.3 ms with Rattus norvegicus [14]. Also, the ED50 in the experiment with Rattus norvegicus [11] turned out to be 0.38 mg/kg.
With `COc1ccccc1OCCNC[C@@H](O)COc1c(OC)ccc2[nH]ccc12`, the Ki in [1] turned out to be 45.8 nM; in [5] it was 3400 nM. For the same molecule, the Activity with Rattus norvegicus [2] is reported as 106.7 ms; in the experiment on Rattus norvegicus [3] it was 28.7 ms; in the experiment on Rattus norvegicus [4] it was 387 bpm; in the experiment on Rattus norvegicus [6] it was 28 ms; with Rattus norvegicus [7], 45.3 ms; in the experiment with Rattus norvegicus [8], 113.3 ms. For the same molecule, the Activity in the experiment on Rattus norvegicus [9] is listed as 42.7 ms; in the experiment with Rattus norvegicus [10], 42 ms; in the experiment with Rattus norvegicus [12], 395.5 bpm; in the experiment with Rattus norvegicus [13], 106 ms; in the experiment with Rattus norvegicus [14], 28.7 ms. Moreover, the ED50 with Rattus norvegicus [11] was determined as 0.16 mg/kg.
